Results from patent publication US4942040A, “Pharmaceutical preparation and a process for its preparation” (priority 1987, dated 1990).

Legend:
Format in all cases: physicochemical
[1] = Cumulative in vitro dissolution of felodipine and metoprolol (Example 1 tablet), USP dissolution apparatus No. 2, 50 rpm, pH 6.5 with 1% sodium dodecylsulphate; conditions: pH 6.5, 1% sodium dodecylsulphate
Procedure: Cumulative in vitro dissolution of felodipine and metoprolol in
a phosphate buffer of pH 6.5 with 1% sodium dodecylsulphate.
Method: USP dissolution apparatus No. 2, 50 rpm.

[2] = Cumulative in vitro dissolution of metoprolol (Reference example B tablet), USP dissolution apparatus No. 2, 50 rpm, phosphate buffer pH 6.8; conditions: phosphate buffer pH 6.8, 50 rpm
Source text: The dissolution rate in vitro from this tablet is shown in Table 3. |Cumulative in vitro dissolution of metoprolol in a phosphate buffer |pH 6.8. |Method: […]

[3] = Cumulative in vitro dissolution of nifedipine and metoprolol (Example 2 tablet), USP dissolution apparatus No. 2, 100 rpm, pH 6.5 with 1% sodium dodecylsulphate; conditions: pH 6.5, 1% sodium dodecylsulphate

SMILES	Percent released over time (h) ([1]; 0 h)	Percent released over time (h) ([1]; 2 h)	Percent released over time (h) ([1]; 4 h)	Percent released over time (h) ([1]; 8 h)	Percent released over time (h) ([1]; 12 h)	Percent released over time (h) ([1]; 16 h)	Percent released over time (h) ([1]; 20 h)	Percent released over time (h) ([2]; 0 h)	Percent released over time (h) ([2]; 1 h)	Percent released over time (h) ([2]; 4 h)	Percent released over time (h) ([2]; 8 h)	Percent released over time (h) ([2]; 12 h)	Percent released over time (h) ([2]; 20 h)	Percent released over time (h) ([3]; 0 h)	Percent released over time (h) ([3]; 2 h)	Percent released over time (h) ([3]; 4 h)	Percent released over time (h) ([3]; 8 h)	Percent released over time (h) ([3]; 12 h)	Percent released over time (h) ([3]; 16 h)	Percent released over time (h) ([3]; 20 h)
CCOC(=O)C1=C(C)NC(C)=C(C(=O)OC)C1c1cccc(Cl)c1Cl (stereo not drawn) [felodipine, 4-(2,3-dichlorophenyl)-1,4-dihydro-2,6-dimethyl-3,5-pyridinedicarboxylic acid ethyl methyl ester]	0%	14%	32%	64%	88%	96%	98%													
COCCc1ccc(OCC(O)CNC(C)C)cc1 (stereo not drawn) [metoprolol]	0%	5%	16%	39%	65%	86%	95%	0%	23%	59%	86%	99%	100%	0%	6%	16%	34%	50%	62%	75%
